# From patent publication US8343467B2 (Beiersdorf AG, priority 2004, dated 2013)
# Assays:
# bacteria = test: antimicrobial / antibacterial effectiveness of glycopyrrolate alone and as enhancer; format: cell-based
# Excerpt: Although this incorporation alone is not sufficient to destroy the bacteria, this makes them more susceptible to attack by antibacterial substances (deodorizing/antiperspirant agents) which can pass through or even destroy the membrane due to the impaired membrane integrity.
# [1] = compared with scopolamine, cited from earlier work
structure (smiles),measurement,setting,value
"C[N+]1(C)CC[C@@H](OC(=O)[C@@](O)(c2ccccc2)C2CCCC2)C1 (relative stereo) [Glycopyrrolate, (±)-(R*)-3-[(S*)-(cyclopentyl hydroxyphenylacetoxy]-1,1-dimethylpyrrolidiniumbromide]",antimicrobial effectiveness,bacteria; glycopyrrolate alone,no or only slight antimicrobial effectiveness
same,antibacterial effect,bacteria; glycopyrrolate alone in the formulations used,does not show any antibacterial effect
same,penetration of biological membranes,[1],penetrates biological membranes more slowly
same,side effects,[1]; topical,fewer side effects than scopolamine
